Reference: PubChem BioAssay AID1259407 (Chemical Carcinogenesis Research Information System (CCRIS), 2018)
Active and inactive are the calls of the source. The rule behind the calls is not given here.

Tested on: CCRIS mutagenicity, Ames/micronucleus/aberration tests
Experiment: CCRIS mutagenicity studies
[1] = Test System: AMES SALMONELLA TYPHIMURIUM, Strain/Indicator: TA100, Metabolic Activation: NONE, Method: STANDARD PLATE
[2] = Test System: MOUSE LYMPHOMA, Strain/Indicator: L5178Y (TK+/TK-), Metabolic Activation: NONE, Method: SUSPENSION/PLATE

With `O=CNc1nc(-c2ccc([N+](=O)[O-])o2)cs1` the mutagenic call [1] was “active; positive”, the mutagenic call (Test System: AMES SALMONELLA TYPHIMURIUM, Strain/Indicator: TA100, Metabolic Activation: RAT, LIVER, S-9, KC500 OR PHENOBARBITAL, Method: LIQUID SUSPENSION) was “active; positive” and the mutagenic call (Test System: E. COLI, Strain/Indicator: WP2, Metabolic Activation: NONE, Method: SPOT) was “active; positive”. For the same compound, the mutagenic call (Test System: E. COLI, Strain/Indicator: WP2, Metabolic Activation: NONE, Method: STANDARD PLATE) was “active; positive”, the mutagenic call (Test System: E. COLI, Strain/Indicator: WP2 UVRA, Metabolic Activation: HAMSTER, LIVER, S-9, AROCLOR 1254, Method: STANDARD PLATE) was “active; positive” and the mutagenic call (Test System: E. COLI, Strain/Indicator: WP2 UVRA, Metabolic Activation: HAMSTER, LIVER, S-9, Method: STANDARD PLATE) was “active; positive”. For the same compound, the mutagenic call (Test System: E. COLI, Strain/Indicator: WP2 UVRA, Metabolic Activation: MOUSE, LIVER, S-9, AROCLOR 1254, Method: STANDARD PLATE) was “active; positive”, the mutagenic call (Test System: E. COLI, Strain/Indicator: WP2 UVRA, Metabolic Activation: MOUSE, LIVER, S-9, Method: STANDARD PLATE) was “active; positive” and the mutagenic call (Test System: E. COLI, Strain/Indicator: WP2 UVRA, Metabolic Activation: NONE, Method: SPOT) was “active; positive”. For the same compound, the mutagenic call (Test System: E. COLI, Strain/Indicator: WP2 UVRA, Metabolic Activation: NONE, Method: STANDARD PLATE) was “active; positive”, the mutagenic call (Test System: E. COLI, Strain/Indicator: WP2 UVRA, Metabolic Activation: RAT, LIVER, S-9, AROCLOR 1254, Method: STANDARD PLATE) was “active; positive” and the mutagenic call (Test System: E. COLI, Strain/Indicator: WP2 UVRA, Metabolic Activation: RAT, LIVER, S-9, Method: STANDARD PLATE) was “active; positive”.

With `CC1=CCC(C(C)(C)O)CC1` (centres undefined) the mutagenic call (Test System: AMES SALMONELLA TYPHIMURIUM, Strain/Indicator: TA97A, Metabolic Activation: NONE, Method: STANDARD PLATE) was “inactive; negative”, the mutagenic call (Test System: AMES SALMONELLA TYPHIMURIUM, Strain/Indicator: TA97A, Metabolic Activation: RAT LIVER S-9, AROCLOR 1254, Method: STANDARD PLATE) was “inactive; negative” and the mutagenic call (Test System: AMES SALMONELLA TYPHIMURIUM, Strain/Indicator: TA98, Metabolic Activation: HAMSTER, LIVER, S-9, AROCLOR 1254, Method: STANDARD PLATE) was “inactive; negative”. The mutagenic call (Test System: AMES SALMONELLA TYPHIMURIUM, Strain/Indicator: TA98, Metabolic Activation: NONE, Method: STANDARD PLATE) was “inactive; negative”, the mutagenic call (Test System: AMES SALMONELLA TYPHIMURIUM, Strain/Indicator: TA98, Metabolic Activation: RAT LIVER S-9 AROCLOR 1254, Method: STANDARD PLATE) was “inactive; negative” and the mutagenic call (Test System: AMES SALMONELLA TYPHIMURIUM, Strain/Indicator: TA98, Metabolic Activation: RAT, LIVER, S-9, AROCLOR 1254, Method: STANDARD PLATE) was “inactive; negative”. The mutagenic call (Test System: AMES SALMONELLA TYPHIMURIUM, Strain/Indicator: TA100, Metabolic Activation: HAMSTER, LIVER, S-9, AROCLOR 1254, Method: STANDARD PLATE) was “inactive; negative”, the mutagenic call [1] was “inactive; negative” and the mutagenic call (Test System: AMES SALMONELLA TYPHIMURIUM, Strain/Indicator: TA100, Metabolic Activation: RAT LIVER S-9, AROCLOR 1254, Method: STANDARD PLATE) was “inactive; negative”. The mutagenic call (Test System: AMES SALMONELLA TYPHIMURIUM, Strain/Indicator: TA100, Metabolic Activation: RAT, LIVER, S-9, AROCLOR 1254, Method: STANDARD PLATE) was “inactive; negative”, the mutagenic call (Test System: AMES SALMONELLA TYPHIMURIUM, Strain/Indicator: TA1535, Metabolic Activation: HAMSTER, LIVER, S-9, AROCLOR 1254, Method: STANDARD PLATE) was “inactive; negative” and the mutagenic call (Test System: AMES SALMONELLA TYPHIMURIUM, Strain/Indicator: TA1535, Metabolic Activation: NONE, Method: STANDARD PLATE) was “inactive; negative”. The mutagenic call (Test System: AMES SALMONELLA TYPHIMURIUM, Strain/Indicator: TA1535, Metabolic Activation: RAT, LIVER, S-9, AROCLOR 1254, Method: STANDARD PLATE) was “inactive; negative”, the mutagenic call (Test System: AMES SALMONELLA TYPHIMURIUM, Strain/Indicator: TA1537, Metabolic Activation: HAMSTER, LIVER, S-9, AROCLOR 1254, Method: STANDARD PLATE) was “inactive; negative” and the mutagenic call (Test System: AMES SALMONELLA TYPHIMURIUM, Strain/Indicator: TA1537, Metabolic Activation: NONE, Method: STANDARD PLATE) was “inactive; negative”. The mutagenic call (Test System: AMES SALMONELLA TYPHIMURIUM, Strain/Indicator: TA1537, Metabolic Activation: RAT, LIVER, S-9, AROCLOR 1254, Method: STANDARD PLATE) was “inactive; negative”, the mutagenic call (Test System: AMES SALMONELLA TYPHIMURIUM, Strain/Indicator: TA1538, Metabolic Activation: HAMSTER, LIVER, S-9, AROCLOR 1254, Method: STANDARD PLATE) was “inactive; negative” and the mutagenic call (Test System: AMES SALMONELLA TYPHIMURIUM, Strain/Indicator: TA1538, Metabolic Activation: NONE, Method: STANDARD PLATE) was “inactive; negative”. The mutagenic call (Test System: AMES SALMONELLA TYPHIMURIUM, Strain/Indicator: TA1538, Metabolic Activation: RAT, LIVER, S-9, AROCLOR 1254, Method: STANDARD PLATE) was “inactive; negative”, the mutagenic call [2] was “inactive; negative. reevaluation of results: negative” and the mutagenic call (Test System: MOUSE LYMPHOMA, Strain/Indicator: L5178Y (TK+/TK-), Metabolic Activation: RAT, LIVER, S-9, AROCLOR 1254, Method: SUSPENSION/PLATE) was “inactive; negative. reevaluation of results: negative”.

In the case of `C=C(C)C(=O)OCC(OC1=CCCC1)OC1=CCCC1`, the mutagenic call [2] is reported as “inactive; negative”.
